Data taken from EP0894433B1, “A method of preparing a biocidal material” (EASTMAN KODAK COMPANY, priority 1997, dated 1999).

Test: Partition coefficient between octanol and water by UV/visible absorption
Format: physicochemical
Details: partition coefficient n-octanol/water, 25°C; read-out: P
Description: As used herein, it provides a measure of the hydrophobicity of the biocide.
A variety of commercial and hydrophobically-modified biocides have been studied. Partition coefficients between octanol and water have been determined at 25°C by UV/visible absorption. First, the calibration curve of each biocide was determined as optical density (ODabs) versus concentration of biocide in µg/g (ppm) of water for the predominantly water-soluble materials and µg/g of octanol for the predominantly oil-soluble biocides.
A known amount of biocide was placed in a glass vessel containing either 10ml of water or 10ml of octanol depending on the solubility of the biocide. An equal volume of the other solvent was added and the glass vessel sealed. The vessel was shaken vigorously for a few minutes and then every few hours for more than 48 hours. Each mixture was placed in a sealed separating funnel and left for a further 24 hours. The water phase of each mixture was removed and the UV/visible spectra run against water with appropriate dilutions to bring absorbance between 0 and 1.5 for the commercial biocides and the octanol fractions were examined for the hydrophobically modified biocides.

Question: For `CCCCCCCCn1sc2ccccc2c1=O` [Compound 1], which logP is on record?
Answer: The logP was > 2.52.

Question: With `CCCCCCCCCCCCCCCCn1sc2ccccc2c1=O` [Compound 2] as the compound, how does the logP read?
Answer: The logP was > 2.11.

Question: With `CCCCCCCCn1sc(Cl)cc1=O` [Compound 3] as the compound, how does the logP read?
Answer: Its logP is > 2.75.

Question: For `CCCCCCCCCCCCCCCCCCn1sc(Cl)cc1=O` [Compound 4], which logP is on record?
Answer: The logP was > 2.68.

Question: With `CCCCCCCCCCCC[N+](C)(C)CCOc1ccccc1` [Domiphen™] as the compound, how does the logP read?
Answer: Its logP is ~1.7.

Question: For `Cn1sc2c(c1=O)CCC2` [Promexal™], which logP is on record?
Answer: Its logP is ~0.653.
